Assay results published in article PMC12864978, “Covalent modification of a glutamic acid inspired by HaloTag technology” (Nature Communications, 2026).
“Also recorded” adds a separate entry of the source. Where two headings read alike, the source gives them in different places.

Tests used:
[1] = biological target: T1, PDEδ (Homo sapiens, UniProt O43924); assay: Covalent modification of PDEδ by MALDI mass spectrometry; assay type: binding; set-up: His tag; made in house; host or cells: Escherichia coli Rosetta (BL21DE3), pET plasmids; settings: PDEδ 20 µM, compound 60 µM, HEPES pH 7.5, 37 °C; mean ± s.e.m.
Protocol: The solution was briefly centrifuged before a sample was taken at the designated time for analysis by MALDI. […] Mass spectra were obtained over the m/z range 15,000–25,000 using a Bruker UltrafleXtreme XIAL DI-TOF/TOF mass spectrometer. Percentages of covalent adduct formation were estimated by the relative intensity of the respective peaks in MALDI spectra.
1. Supplementary Figures and Tables
PDEδ (20 µM) was incubated with compounds (60 µM) in HEPES
Percentages of covalent adduct formation were estimated by the relative intensity of the respective peaks in MALDI spectra. Data are presented as mean ± s.e.m.
Apparent pseudo -first order kobs was estimated by percentages of covalent adduct formation at 2 hours by MALDI. Plot of kobs (h-1) against concentration (µM) was fitted by GraphPad […]
Prism Michaelis-Menten model and separate values for kinact and KI were obtained to calculate apparent […]
PDEδ (20 µM) was incubated with
Data are presented as mean ± s.e.m.
HEPES buffer, n = 3 for the rest). One-way ANOVA with matched time-points, with Geisser-

[2] = Compound stability in aqueous buffers; assay type: physicochemical
Protocol: (§1) Compound (1 mM) was incubated with the respective buffers (HEPES 20 mM, 150 mM NaCl, pH = 7.5; 0.2 M sodium acetate buffer, pH = 5.6; 0.2 M sodium citrate buffer, pH = 6.2; 0.2 M potassium phosphate buffer, pH = 7.4, 1 mM EDTA, with or without 10 mM GSH), with 1% DMSO adjusted for all conditions. […] Per cent (%) compound remaining in the solution was estimated by the ratio of areas under the curve, and data plotted were fitted to pseudo-1st kinetics in the calculation of rate constants (k) and half-lives (t1/2), where k is the negative slope of a linear regression of In (% compound remaining) over time. Half-lives (t1/2) in respective buffers and half-lives for GSH adduct formation (t1/2 GSH) were calculated with the following equations:1 t1/2=In2/k 2 kGSH=ktotalconsumptioninphosphatebufferinpresenceofGSH−k(phosphatebufferinabsenceofGSH) 3 t1/2GSH=In2/k(GSH) […]
(§2) a, Percentage (%) of compound remaining was monitored by HPLC-MS and data was fitted to pseudo-first kinetics in calculation of rate constants (k) and half-lives (t1/2) in respective buffers, where k is the negative slope of a linear regression of In (% compound remaining) over time and t 1/2 = In2/k. Initial […]
(§3) Initial GSH concentration =

[3] = GSH adduct formation (stability in the presence of GSH); assay type: physicochemical; settings: phosphate buffer with 10 mM GSH; 10-fold excess of GSH at 10 mM, phosphate buffer pH 7.4, 37 °C; read-out: half-life for GSH adduct formation t1/2 GSH (converted)
Protocol: as §1, §2, §3

[4] = biological target: T1, PDEδ; assay: Competitive fluorescence polarisation assay (FA probe displacement); assay type: binding; set-up: His tag; made in house; host or cells: Escherichia coli Rosetta (BL21DE3), pET plasmids; settings: PDEδ 40 nM, FA probe 24 nM, room temperature overnight
[5] = biological target: T1, PDEδ; assay: Differential scanning fluorimetry (NanoDSF); assay type: binding; set-up: His tag; made in house; host or cells: Escherichia coli Rosetta (BL21DE3), pET plasmids; settings: PDEδ 20 µM, compound 60 µM; mean ± s.d., Fig. 2e; read-out: melting temperature shift ΔTm (NanoDSF)
Protocol: Afterwards, a sample of the solution was cooled down to room temperature and was loaded onto a capillary, followed by the measurement of fluorescence intensities at 350 nm and 330 nm from 20 °C up to 90 °C (with a rate of increment of 1 °C/min) using the Prometheus Panta device (NanoTemper® Technologies, DE).

[6] = biological target: T1, PDEδ; assay: Mass spectrometry analysis of PDEδ adducts after Glu-C digestion; assay type: binding; set-up: His tag; made in house; host or cells: Escherichia coli Rosetta (BL21DE3), pET plasmids; settings: LC-MS/MS, 10:1 compound to protein
Protocol: For each replicate, 1.5 µg covalent adduct of PDEδ sample in PBS buffer was denatured, reduced, alkylated and digested by Glu-C and desalted, together with a negative control of unbound vehicle-treated PDEδ sample prior to mass spectrometry analysis. […] The final mixture containing 6.5 M guanidine hydrochloride was heated at 95 °C for 15 min. Subsequently, after cooling, 0.5 µl of a 50 mM dithiothreitol (DTT, cas 3483-12-3, Gerbu Biotechnik, #1008-100 g) solution was added. […] . Samples were incubated at 37 °C overnight with shaking at 400 rpm, protected from light. […] Desalting was carried out with stage tips with C18 extraction discs (Empore^TM high performance extraction discs, 47 mm, 3 M Bioanalytical Technologies #2215). Each stage tip, which consists of two stacked layers of C18 discs, was activated with methanol (100 µl), washed once with buffer B (100 µl, 0.1% formic acid, 80% acetonitrile), and twice with buffer A (100 µl/time, 0.1% formic acid). After sample loading and washing with buffer A once, the desalted sample was eluted with buffer B (20 µl/sample) and centrifuged at 500×g at room temperature for 5 min. Eluted samples were then dried in a SpeedVac at 30 °C.
Data evaluation was performed using MaxQuant software (v.2.2.0.0)[52]. […] Cleavages by Glu-C were analysed based on the enzyme that was used for digestion. […]

[7] = system: BxPC-3 cells; assay: Real-time cell analysis (Incucyte) of proliferation; assay type: cell-based, human
Protocol: (§4) Real-time cell analysis (RTCA) was conducted using an Incucyte S3 live-cell analysis system (Sartorius AG, Germany). […] Following attachment overnight, the medium was replaced with fresh medium containing test compounds, with all conditions adjusted to contain 0.5% DMSO. […] Phase-contrast images (2 images per well) were automatically captured at 2-h intervals until control wells (DMSO-treated) reached full confluency. Cell growth was quantified using the instrument’s integrated Basic Analyser module by applying a confluence mask to calculate the percentage of phase area confluence. […] Dose-response curves were generated and fitted via four-parameter variable slope nonlinear regression to determine cellular IC₅₀ values.

[8] = system: MIA PaCa-2 cells; assay: as above; assay type: cell-based, human
Protocol: as §4

[9] = system: NCI-H358 cells; assay: as above; assay type: cell-based, human; settings: read-out: cellular IC50
Protocol: as §4

[10] = system: PA-TU-8902 cells; assay: as above; assay type: cell-based, human
Protocol: as §4

[11] = system: SW480 cells; assay: as above; assay type: cell-based, human
Protocol: as §4

[12] = system: panel of human cell lines; assay: Cytotoxicity screening in a panel of human cell lines; assay type: cell-based; settings: concentrations up to 25 µM
Protocol: Real-time cell analysis (RTCA) was conducted using an Incucyte S3 live-cell analysis system (Sartorius AG, Germany). Adherent cell lines were seeded at 5 × 10³ cells per well in 96-well plates containing 100 µl of culture medium and incubated overnight at 37 °C with 5% CO₂. Following attachment overnight, the medium was replaced with fresh medium containing test compounds, with all conditions adjusted to contain 0.5% DMSO. […] Phase-contrast images (2 images per well) were automatically captured at 2-h intervals until control wells (DMSO-treated) reached full confluency. Cell growth was quantified using the instrument’s integrated Basic Analyser module by applying a confluence mask to calculate the percentage of phase area confluence. For dose-response assessment, confluence values at 72 h post-treatment were normalised to the DMSO control and analysed using GraphPad Prism 9.5.1 (GraphPad Software, USA). Dose-response curves were generated and fitted via four-parameter variable slope nonlinear regression to determine cellular IC₅₀ values.
representative of biological replicates n = 3.
comet images for each condition were shown.
time live-cell imaging by Incucyte.
Source data are provided as […]

[13] = system: Rheb localisation in PA-TU-8902 cells; assay: Immunofluorescence staining of Rheb; assay type: cell-based, human; settings: 5 µM, overnight
Protocol: Immunostaining: compound-treated PA-TU-8902 cells were washed once with cold PBS, fixed with 3.7% paraformaldehyde in PBS by incubation at room temperature for 10 min and permeabilised with 0.3% Triton X-100 in PBS by incubation at room temperature for 15 min. […] After washing with PBS-T three times, PBS-incubated cells were imaged with Observer Z1 (Carl Zeiss, Germany) with a 63× oil objective.

[14] = biological target: PDEδ; settings: previously developed PDEδ inhibitor chemotypes, Fig. 1b; read-out: KD (reported binding affinity); cited from earlier work
[15] = biological target: UNC119B (Homo sapiens, UniProt A6NIH7); assay: Mass spectrometry analysis of UNC119B adducts after Lys-C digestion; settings: 10 eq., overnight at 37 °C; including binding pocket p.E174
[16] = Homo sapiens, 72 h, read-out: cellular IC50

In the case of `Cc1ccc(-n2nc3c(=O)n(CCCC(=O)NCCCCCBr)nc(C)c3c2C)cc1` [2d], the “% covalent modification at 24 h” value [1] is reported as 8 ± 5%.
For `Cc1ccc(-n2nc3c(=O)n(CCCC(=O)N(CCCCl)CC4CCNCC4)nc(C)c3c2C)cc1` [3a], the “% covalent modification at 24 h” value [1] was “not reactive enough to yield any detectable covalent adduct”.
With `Cc1ccc(-n2nc3c(=O)n(CCCC(=O)N(CCCCCCl)CC4CCNCC4)nc(C)c3c2C)cc1` [3b] the “% covalent modification at 24 h” value [1] was “not reactive enough to yield any detectable covalent adduct”.
For `Cc1ccc(-n2nc3c(=O)n(CCCC(=O)N(CCCBr)CC4CCNCC4)nc(C)c3c2C)cc1` [3c], the “% covalent modification at 24 h” value [1] was “not reactive enough to yield any detectable covalent adduct”.
With `Cc1ccc(-n2nc3c(=O)n(CCCC(=O)N(CCCCCBr)CC4CCNCC4)nc(C)c3c2C)cc1` [3d] the “% covalent modification at 24 h” value [1] was 11 ± 4%.
In the case of `Cc1ccc(-n2nc3c(=O)n(CCCCS(=O)(=O)N(CCCCCBr)CC4CCNCC4)nc(C)c3c2C)cc1` [4b], the “% covalent modification at 24 h” value [1] is reported as 23 ± 3%.
`Cc1ccc(-n2nc3c(=O)n(CCCCS(=O)(=O)N(CCCCCCCBr)CC4CCNCC4)nc(C)c3c2C)cc1` [5e] gave a half-life at 1 mM ([2]; HEPES buffer, pH 7.5, 37 °C, compound 1 mM, read-out: half-life t1/2 in HEPES buffer (converted)) of 85 h, a half-life at 1 mM ([2]; acetate buffer, pH 5.6, 37 °C, read-out: half-life t1/2 in acetate buffer (converted)) of 43 h and a half-life at 1 mM [3] of 180 days. The “% covalent modification at 24 h” value [1] was 62 ± 10%, the IC50 [4] was 0.017 ± 0.0061 µM and the ΔTm at 60 µM [5] was 14.7 ± 1.2 °C. The “site of covalent modification in PDEδ” value [6] was “either at p.E88 or p.E89”.
With `Cc1ccc(-n2nc3c(=O)n(CCCCS(=O)(=O)N(CCCCCCCCl)CC4CCNCC4)nc(C)c3c2C)cc1` [5h] the IC50 [4] was 0.0137 ± 0.0034 µM and the ΔTm at 60 µM [5] was 11.3 ± 0.6 °C.
Compound `Cc1ccc(-n2nc3c(=O)n(CCCCS(=O)(=O)N(CCc4cccc(CCCl)c4)CC4CCNCC4)nc(C)c3c2C)cc1` [6b] has an IC50 [7, 16] of over 26 µM, an IC50 ([8]; Homo sapiens, MIA PaCa-2, 72 h, read-out: cellular IC50) of 10.9 ± 1.9 µM and an IC50 ([9]; Homo sapiens, NCI-H358, 72 h, NCI-H358, 72 h) of 6.8 ± 1.9 µM. It also gave an IC50 ([9]; NCI-H358, 72 h) of 6.3 ± 1.9 µM, an IC50 ([10]; Homo sapiens, PaTu 8902, PA-TU-8902, 72 h, read-out: cellular IC50) of 12 ± 1 µM and an IC50 [11, 16] of over 50 µM. The general cytotoxicity [12] was “not observed”, the IC50 [4] was 0.0082 ± 0.004 µM and the ΔTm at 60 µM [5] was 11.1 ± 0.6 °C.
For `Cc1ccc(-n2nc3c(=O)n(CCCC(=O)NCC(C)c4ccccc4)nc(C)c3c2C)cc1` (centres unmarked) [Deltazinone 1, reference compound], the “cellular Rheb distribution” value [13] was “loss of inhibition for PDEδ-Rheb interaction”, the growth inhibition ([7]; doses up to 50 µM) was “little or no growth inhibition” and the “% Growth rate of MIA PaCa-2 cells” value ([8]; 25 µM) was 96%. The “% Growth rate of MIA PaCa-2 cells” value ([8]; 50 µM) was 80%, the growth inhibition ([8]; MIA PaCa-2, doses up to 50 µM) was “little or no growth inhibition; also recorded: no anti-proliferative activity” and the IC50 ([9]; Homo sapiens, NCI-H358, 72 h) was 0.14 ± 0.11 µM. For the same compound, the “% Growth rate of PA-TU-8902 cells” value ([10]; 25 µM) was 29%, the “% Growth rate of PA-TU-8902 cells” value ([10]; 50 µM) was 23% and the growth inhibition ([11]; doses up to 50 µM) was “little or no growth inhibition”.
For `Cc1c(Cl)cccc1NC(=O)CCCn1nc(C)c2c(C)n(-c3ccccc3)nc2c1=O` [Deltazinone derivative], the Kd [14] is listed as 0.005 ± 0.002 µM.
In the case of `CCOC(=O)N1CCC(Nc2c(NCCCBr)c(=O)c2=O)CC1` [compound 7], the “covalent modification of acid sites in UNC119B” value [15] is reported as “covalently modified”.
